# Legend:
# [1] = Moisture content by Karl Fischer method; type: physicochemical; settings: Tray rehydration (18 hours bench top, 2 hours 25° C./60% RH or 2 hours 40° C./75% RH)
# authentic variola virus = settings: cited from earlier work
# [2] = in vivo; cited from earlier work
# [3] = intravenous administration; cited from earlier work
Compound,Moisture (% w/w KF) [1] [% w/w],Variola virus replication (authentic variola virus),Bioavailability [2],Nephrotoxicity [3]
"O=C(NN1C(=O)[C@@H]2[C@@H]3C=C[C@@H]([C@H]4C[C@@H]34)[C@@H]2C1=O)c1ccc(C(F)(F)F)cc1 [ST-246, N-[(3aR,4R,4aR,5aS,6S,6aS)-3,3a,4,4a,5,5a,6,6a-octahydro-1,3-dioxo-4,6-ethenocycloprop[f]isoindol-2(1H)-yl]-4-(trifluoromethyl)-benzamide]",~4.5,–,–,–
"Nc1ccn(C[C@@H](CO)OCP(=O)(O)O)c(=O)n1 [Cidofovir, (S)-1-(3-hydroxy-2-phosphonylmethoxypropyl)cytosine]",–,inhibit authentic variola virus replication,poorly bioavailable,dose-limiting nephrotoxicity
